# Measurements published in patent CN109096271A, “噻吩类化合物及其作为usp7抑制剂和抗肿瘤药物的应用” (China Pharmaceutical University, priority 2018, dated 2018).
# Experiments:
# [1] = test system: human colon cancer cells HCT-116 [人结肠癌细胞HCT-116]; test: Antiproliferative activity on human colon cancer HCT-116 cells (MTT staining); type: cell-based; settings: HCT-116 wild type, 72 h
# [2] = biological target: T1, full-length USP7 enzyme [全长USP7酶] (Homo sapiens, UniProt Q93009); test: Inhibition of full-length USP7 enzyme in vitro (Ub-AMC method); type: biochemical; settings: half-maximal inhibitory concentration; full-length USP7, Ub-AMC substrate, 30 min preincubation at room temperature (25℃), 2 h reaction, pH 7.6; read-out: EC50 (the source's name)
# T1 construct: 全长USP7蛋白,Ub-AMC底物蛋白,实验缓冲液
# T1 sequence (Q93009 whole entry): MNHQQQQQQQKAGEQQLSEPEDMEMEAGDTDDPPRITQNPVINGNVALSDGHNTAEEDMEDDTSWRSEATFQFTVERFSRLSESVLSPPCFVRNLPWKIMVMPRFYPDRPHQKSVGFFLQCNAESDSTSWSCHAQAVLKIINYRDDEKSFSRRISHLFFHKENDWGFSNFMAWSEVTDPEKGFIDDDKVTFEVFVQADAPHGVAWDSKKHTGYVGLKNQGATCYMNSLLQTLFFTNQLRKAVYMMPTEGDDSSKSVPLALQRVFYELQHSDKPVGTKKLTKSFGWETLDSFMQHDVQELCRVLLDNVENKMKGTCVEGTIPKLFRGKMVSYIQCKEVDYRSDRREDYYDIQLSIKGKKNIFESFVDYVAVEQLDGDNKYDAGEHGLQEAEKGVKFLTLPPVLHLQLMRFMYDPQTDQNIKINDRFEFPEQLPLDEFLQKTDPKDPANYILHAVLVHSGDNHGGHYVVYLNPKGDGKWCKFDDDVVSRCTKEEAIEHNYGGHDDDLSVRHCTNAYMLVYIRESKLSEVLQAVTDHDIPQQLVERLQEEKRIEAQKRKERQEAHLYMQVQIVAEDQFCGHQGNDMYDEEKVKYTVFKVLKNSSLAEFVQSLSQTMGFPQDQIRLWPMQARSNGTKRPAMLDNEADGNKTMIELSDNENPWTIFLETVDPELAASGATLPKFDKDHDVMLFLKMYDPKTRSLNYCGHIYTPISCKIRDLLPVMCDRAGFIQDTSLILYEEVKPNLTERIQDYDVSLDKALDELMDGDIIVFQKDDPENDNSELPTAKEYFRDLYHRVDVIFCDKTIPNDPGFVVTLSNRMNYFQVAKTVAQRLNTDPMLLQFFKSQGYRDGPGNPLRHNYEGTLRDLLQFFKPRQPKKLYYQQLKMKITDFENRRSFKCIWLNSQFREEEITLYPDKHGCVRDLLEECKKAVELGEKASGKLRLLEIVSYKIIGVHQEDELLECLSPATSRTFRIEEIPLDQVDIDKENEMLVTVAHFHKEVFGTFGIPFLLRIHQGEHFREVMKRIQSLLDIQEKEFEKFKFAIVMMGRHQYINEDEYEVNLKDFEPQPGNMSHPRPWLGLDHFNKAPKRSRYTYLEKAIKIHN
molecule,measurement,setting,value
"O=C(NCCc1ccc2c(c1)OCO2)c1cc([N+](=O)[O-])c(Sc2c(Cl)cncc2Cl)s1 [I-18, N-(2-(苯并[d][1,3]二氧杂环戊烯-5-基)乙基)-5-((3,5-二氯吡啶-4-基)硫基)-4-硝基噻吩-2-甲酰胺]",IC50,[1]; Homo sapiens,> 50 µM
same,IC50,[2],> 50 µM
"CN(C)CCN1CCN(C(=O)c2cc([N+](=O)[O-])c(Sc3c(Cl)cncc3Cl)s2)CC1 [I-17, (5-((3,5-二氯吡啶-4-基)硫基)-4-硝基噻吩-2-基)(4-(2-(二甲基氨基)乙 基)哌嗪-1-基)甲酮]",IC50,[1]; Homo sapiens,8.53 µM
same,IC50,[2],6.59 µM
"CN1CCC(Oc2ccc(NC(=O)c3cc([N+](=O)[O-])c(Sc4c(Cl)cncc4Cl)s3)cc2)CC1 [I-5, 5-((3,5-二氯吡啶-4-基)硫基)-N-(4-((1-甲基哌啶-4-基)氧基)苯基)-4-硝基噻吩-2-甲酰胺]",IC50,[1]; Homo sapiens,2.39 µM
same,IC50,[2],2.85 µM
"CC1CS(=O)(=O)c2cc(NC(=O)c3cc([N+](=O)[O-])c(Sc4c(Cl)cncc4Cl)[nH]3)ccc21 (stereo not shown) [I-2, 5-((3,5-二氯吡啶-4-基)硫基)-N-(3-甲基-1,1-二氧代-2,3-二氢苯并[b]噻吩-6-基)-4-硝基-1H-吡咯-2-甲酰胺]",IC50,[1]; Homo sapiens,> 50 µM
same,IC50,[2],> 50 µM
"O=C(NCCN1CCOCC1)c1cc([N+](=O)[O-])c(Sc2c(Cl)cncc2Cl)s1 [I-16, 5-((3,5-二氯吡啶-4-基)硫基)-N-(2-吗啉代乙基)-4-硝基噻吩-2-甲酰胺]",IC50,[1]; Homo sapiens,4.82 µM
same,IC50,[2],4.59 µM
"CN1CCC(Oc2ccc(NC(=O)c3cc([N+](=O)[O-])c(Sc4c(Cl)cncc4Cl)s3)cc2)C1 (stereo not shown) [I-4, 5-((3,5-二氯吡啶-4-基)硫基)-N-(4-((1-甲基吡咯烷-3-基)氧基)苯基) -4-硝基噻吩-2-甲酰胺]",IC50,[1]; Homo sapiens,2.65 µM
same,IC50,[2],4.45 µM
"CN1CCCC(Oc2ccc(NC(=O)c3cc([N+](=O)[O-])c(Sc4c(Cl)cncc4Cl)s3)cc2)CC1 (stereo not shown) [I-6, 5-((3,5-二氯吡啶-4-基)硫基)-N-(4-((1-甲基吖庚烷-4-基)氧基)苯基)-4-硝基噻吩-2-甲酰胺]",IC50,[1]; Homo sapiens,1.98 µM
same,IC50,[2],4.56 µM
"CN(C)CCN1CCN(C(=O)c2ccc(NC(=O)c3cc([N+](=O)[O-])c(Sc4c(Cl)cncc4Cl)s3)cc2)CC1 [I-11, 5-((3,5-二氯吡啶-4-基)硫基)-N-(4-(4-(2-(二甲基氨基)乙基)哌嗪-1-羰基)苯基)-4-硝基噻吩-2-甲酰胺]",IC50,[1]; Homo sapiens,7.63 µM
same,IC50,[2],2.5 µM
"CN1CCN(C(=O)c2ccc(NC(=O)c3cc([N+](=O)[O-])c(Sc4c(Cl)cncc4Cl)s3)cc2)CC1 [I-10, 5-((3,5-二氯吡啶-4-基)硫基)-N-(4-(4-甲基哌嗪-1-羰基)苯基)-4-硝基噻吩-2-甲酰胺]",IC50,[1]; Homo sapiens,3.36 µM
same,IC50,[2],2.96 µM
"CC1CS(=O)(=O)c2cc(NC(=O)c3cc([N+](=O)[O-])c(Sc4c(Cl)cncc4Cl)n3C)ccc21 (stereo not shown) [I-3, 5-((3,5-二氯吡啶-4-基)硫基)-1-甲基-N-(3-甲基-1,1-二氧代-2,3-二氢苯并[b] 噻吩-6-基)-4-硝基-1H-吡咯-2-甲酰胺]",IC50,[1]; Homo sapiens,> 50 µM
same,IC50,[2],> 50 µM
"CC1CS(=O)(=O)c2cc(NC(=O)c3cc([N+](=O)[O-])c(Sc4c(Cl)cncc4Cl)o3)ccc21 (stereo not shown) [I-1, 5-((3,5-二氯吡啶-4-基)硫基)-N-(3-甲基-1,1-二氧代-2,3-二氢苯并[b]噻吩-6-基)-4-硝基呋喃-2-甲酰胺]",IC50,[1]; Homo sapiens,> 50 µM
same,IC50,[2],> 50 µM
"((3,5-二氯吡啶-4-基)硫基)-N-(4-((2-(4-甲基哌嗪-1-基)乙酰氨基)甲基) 苯基)-4-硝基噻吩-2-甲酰胺 [I-13]",IC50,[1],3.26 µM
same,IC50,[2],3.71 µM
"CN1CCN(CC(=O)Nc2ccc(NC(=O)c3cc([N+](=O)[O-])c(Sc4c(Cl)cncc4Cl)s3)cc2)CC1 [I-15, 5-((3,5-二氯吡啶-4-基)硫基)-N-(4-(2-(4-甲基哌嗪-1-基)乙酰氨基)苯 基)-4-硝基噻吩-2-甲酰胺]",IC50,[1]; Homo sapiens,4.87 µM
same,IC50,[2],7.26 µM
"O=C(NCCN1CCOCC1)c1ccc(NC(=O)c2cc([N+](=O)[O-])c(Sc3c(Cl)cncc3Cl)s2)cc1 [I-12, ((3,5-二氯吡啶-4-基)硫基)-N-(4-((2-吗啉代乙基)氨基甲酰基)苯基)-4-硝基噻吩-2-甲酰胺]",IC50,[1]; Homo sapiens,1.82 µM
same,IC50,[2],1.18 µM
"CN1CCN(CC(=O)NCc2ccc(NC(=O)c3cc([N+](=O)[O-])c(Sc4c(Cl)cncc4Cl)s3)cc2)CC1 [I-14, ((3,5-二氯吡啶-4-基)硫基)-N-(4-((2-(4-甲基哌嗪-1-基)乙酰氨基)甲基) 苯基)-4-硝基噻吩-2-甲酰胺]",IC50,[1]; Homo sapiens,4.74 µM
same,IC50,[2],3.65 µM
"CS(=O)(=O)N1CCN(c2ccc(NC(=O)c3cc([N+](=O)[O-])c(Sc4c(Cl)cncc4Cl)s3)cc2)CC1 [I-9, 5-((3,5-二氯吡啶-4-基)硫基)-N-(4-(4-(甲基磺酰基)哌嗪-1-基)苯基) -4-硝基噻吩-2-甲酰胺]",IC50,[1]; Homo sapiens,2.99 µM
same,IC50,[2],42.5 µM
"CN1CCCN(c2ccc(NC(=O)c3cc([N+](=O)[O-])c(Sc4c(Cl)cncc4Cl)s3)cc2)CC1 [I-7, 5-((3,5-二氯吡啶-4-基)硫基)-N-(4-(4-甲基-1,4-二氮杂环庚烷-1-基)苯基)-4-硝基噻吩-2-甲酰胺]",IC50,[1]; Homo sapiens,3.48 µM
same,IC50,[2],6.9 µM
